In patent EP4745136A1, “PROTEIN TYROSINE PHOSPHATASE INHIBITOR, COMPOSITION COMPRISING SAME, AND MEDICAL USE THEREOF” (Shenzhen Zhongge Biological Technology Co., Ltd., priority 2023, dated 2025):

Assays:
[1] = test system: B16F10 cells; assay: B16F10 mIFNγ-induced cell growth inhibition assay (CTG); format: cell-based
Description: 40 µL (150 cells/well) of B16F10 cells (source ATCC Cat#CRL-6475) were inoculated into a 384-well plate, and the compounds were transferred to the 384-well plate containing cells using EHCO. One group of cells was added with 10 µL of complete medium (RPMI 1640 medium+10% FBS) without mIFNγ, one group was added with 10 µL of complete medium containing mIFNγ (source R&D Cat#485-MI/CF, final concentration 25 ng/ml), and different concentrations of compounds (DMSO content 0.5%) were added to the reaction system. The cell culture plates were incubated at 37 °C in 5% CO2 for 96 h. 25 µL of CTG was added, Envision was used for reading, the cell growth inhibition IC50 value (Cell IC50) was fitted by nonlinear regression analysis using a four-parameter logistic equation with DMSO/mIFNγ as the negative control and [drawing 152] as the positive control.

[2] = target: T1, PTPN2 (Homo sapiens, UniProt P17706); assay: PTPN2 inhibitory activity assay (HTRF); format: biochemical; conditions: PTPN2 final concentration 1 nM, substrate 1 µM, 40 min at room temperature
T1 construct: purchased Sino biological 10570-H20B
T1 sequence (P17706 1-415): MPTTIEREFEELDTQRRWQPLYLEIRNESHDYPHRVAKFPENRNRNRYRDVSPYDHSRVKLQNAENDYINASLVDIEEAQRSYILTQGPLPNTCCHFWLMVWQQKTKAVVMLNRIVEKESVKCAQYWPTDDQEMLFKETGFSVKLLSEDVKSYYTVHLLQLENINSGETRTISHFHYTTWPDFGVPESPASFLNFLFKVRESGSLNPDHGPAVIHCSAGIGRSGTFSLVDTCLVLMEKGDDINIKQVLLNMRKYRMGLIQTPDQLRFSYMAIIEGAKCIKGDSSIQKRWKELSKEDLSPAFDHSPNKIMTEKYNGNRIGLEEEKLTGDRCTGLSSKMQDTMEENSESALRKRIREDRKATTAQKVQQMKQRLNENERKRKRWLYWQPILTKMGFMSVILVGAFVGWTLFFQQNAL
Description: The present invention employs HTRF assay to characterize the inhibitory activity of compounds against PTPN2. The specific experimental process was as follows: compounds were transferred to a 384-well plate (PE# 6007290) using ECHO, and enzymatic reaction buffer (50 mM HEPES pH 7.5, 10 mM EDTA,0.01% Tween 20, 2 mM DTT) was prepared. PTPN2 (Sino biological #10570-H20B) was diluted in the reaction buffer, PTPN2 (final concentration 1 nM) was added and incubated with the compound at room temperature for 10 min, then the substrate (final concentration 1 µM) (biotin-(NH-CH2-CH2-O-CH2-CH2-O-CH2-CO)-T-R-D-I-(PY)-E-T-D-Y-Y-R-K-K-NH2) (Genscript) was added, and the reaction was terminated by adding a quencher after incubation at room temperature for 40 min. A final concentration of 10 nM Eu-anti-P (PY20) antibody (Cisbio#AD0066) and 15 nM APC-Streptavidin (Cisbio#AD0201) was added and incubated at room temperature for 1 hour. The fluorescence values of the reacted 384-well plates were read at 620 nm and 665 nm using Envision, and the IC50 value of inhibiting PTPN2 enzyme activity (PTPN 2 IC50) was fitted by nonlinear regression analysis of a four-parameter logistic equation.

[3] = Mus musculus, B16-F10, 96 h, B16F10 cells with mIFNγ final concentration 25 ng/ml, CTG readout
[4] = B16F10 cells with mIFNγ final concentration 25 ng/ml, 96 h, CTG readout
[5] = Mus musculus, B16-F10; B16F10 cells with mIFNγ final concentration 25 ng/ml, 96 h, CTG readout

| SMILES | GI50 [1, 3] | IC50 [2] | GI50 [1, 4] | GI50 [1, 5] |
| --- | --- | --- | --- | --- |
| CC(C)CCNCC1Cc2cc(O)c(N3CC(=O)NS3(=O)=O)c(F)c2/C1=C/F (racemic) [Compound 4] | 1 to 10 µM | ≤ 20 nM | – | – |
| CC(C)CCNCC1Cc2cc(O)c(N3CC(=O)NS3(=O)=O)c(F)c2/C1=C\F (racemic) [Compound 7] | 10 to 100 µM | 20 to 100 nM | – | – |
| CC(C)CCN[C@H]1Cc2c(cc(O)c(N3CC(=O)NS3(=O)=O)c2F)C2CC21 (single isomer, unassigned) [Compound 2] | – | 100 to 500 nM | 10 to 100 µM | – |
| CC(C)CCN[C@H]1Cc2c(cc(O)c(N3CC(=O)NS3(=O)=O)c2F)C2CC21 (single isomer, unassigned) [Compound 3] | – | ≤ 20 nM | ≤ 1 µM | – |
| CC(C)CCNCC1Cc2cc(O)c(N3CC(=O)NS3(=O)=O)c(F)c2/C1=C/F (single isomer, unassigned) [Compound 5] | – | 100 to 500 nM | 10 to 100 µM | – |
| CC(C)CCNCC1Cc2cc(O)c(N3CC(=O)NS3(=O)=O)c(F)c2/C1=C/F (single isomer, unassigned) [Compound 6] | – | ≤ 20 nM | ≤ 1 µM | – |
| CC(C)CCN[C@H]1Cc2c(cc(O)c(N3CC(=O)NS3(=O)=O)c2F)C2CC21 (some centres unmarked) [Compound 1] | 1 to 10 µM | ≤ 20 nM | – | – |
| O=C1CN(c2c(O)cc3c(c2F)C[C@H](NCCCC(F)(F)F)C2CC32)S(=O)(=O)N1 (some centres unmarked) [Compound 8] | ≤ 1 µM | ≤ 20 nM | – | – |
| CC(C)(CCN[C@H]1Cc2c(cc(O)c(N3CC(=O)NS3(=O)=O)c2F)C2CC21)C(F)(F)F (some centres unmarked) [Compound 9] | 1 to 10 µM | ≤ 20 nM | – | – |
| CC(C)(C)CCN[C@H]1Cc2c(cc(O)c(N3CC(=O)NS3(=O)=O)c2F)C2CC21 (some centres unmarked) [Compound 10] | – | ≤ 20 nM | – | 1 to 10 µM |
| O=C1CN(c2c(O)cc3c(c2F)C[C@H](NCCC2CCCCC2)C2CC32)S(=O)(=O)N1 (some centres unmarked) [Compound 11] | – | ≤ 20 nM | – | 10 to 100 µM |
| O=C1CN(c2c(O)cc3c(c2F)C[C@H](NCC2CCCCO2)C2CC32)S(=O)(=O)N1 (some centres unmarked) [Compound 16] | – | 100 to 500 nM | – | 1 to 10 µM |
| O=C1CN(c2c(O)cc3c(c2F)C[C@H](NCCC2CCCC2)C2CC32)S(=O)(=O)N1 (some centres unmarked) [Compound 17] | – | ≤ 20 nM | – | 1 to 10 µM |
